Reference: paper PMC5516028, “Molecular tools for GABAA receptors: High affinity ligands for β1-containing subtypes” (Scientific Reports, 2017)
Values joined by “and” are separate entries in the source; they are usually repeats but may differ in a detail not shown here. Equal values may be shown once. Read-outs that look alike come from different tables or passages of the source.

Tests used:
Type in all cases: cell-based
α1β3γ2 GABAA receptors = target: T1, α1β3γ2 GABAA receptors (Rattus norvegicus, UniProt P62813+P63079); assay: Two electrode voltage clamp in Xenopus laevis oocytes, α1β3γ2
T1 construct: expressed in transfected cells; host or cells: Xenopus laevis oocytes, mRNA injected
Text: (§1) cDNA’s of rat GABAA receptor subunits α1, α4, β1, β2, β3 and γ2S were cloned as described. cDNAs of the rat subunits α2, α3 and α5 were gifts from P. Malherbe, that of α6 and γ1 were gifts of P. Seeburg and that of δ was a gift of C. Czajkowski. The mutants were constructed using the Q5 Site-Directed Mutagenesis Kit (New England Biolabs) following manufacturer’s instruction. We used the wild-type rat β3-pCI vector as template and the primers […] and […] resulting in a substitution of amino acid N41 (AAC) to R (AGG). We used the wild-type rat β1-pCI vector as template and the primers […] and […] resulting in a substitution of amino acid R41 (CGG) to N (AAC). The mutated subunits were confirmed by sequencing.
(§2) In vitro transcription of mRNA was based on the cDNA expression vectors encoding for rat GABAA receptor subunits α1–6, β1-3, γ1,2, δ and the two β mutants (β1R41N and β3N41R)[40]. After linearizing the cDNA vectors with appropriate restriction endonucleases, the cDNA was purified and concentrated with the DNA Clean and Contentrator ^TM Kit (Zymoresearch, Catalog No. D4005). Capped transcripts of the purified cDNA were produced using the mMESSAGE mMACHINE® T7 transcription kit (Ambion, TX, USA) and polyadenylated using the Ambion PolyA tailing kit (Ambion). After transcription and polyadenylation the RNA was purified with the MEGAclear ^TM Kit (Ambion, Catalog No. AM1908). The final RNA concentration was measured on NanoDrop® ND-1000 and finally diluted and stored in diethylpyrocarbonate-treated water at −80 °C. For the microinjection, the RNA of αβ receptor combinations was mixed at 1:1 ratio (which leads to αβ receptors that consist of predominantly 3 beta and 2 alpha subunits[27]), for αkβlγm (k = 1–3, l = 1, 3, m = 1, 2) receptors at 1:1:5 ratio, for αkβ3γ2 (k = 4–6) and αkβlδ (k = 1, 4 and 6, l = 1, 3) receptor combinations at 3:1:5 ratio.
(§3) Mature female Xenopus laevis (Nasco, WI) were anesthetized in a bath of ice-cold 0.17% Tricain (Ethyl-m-aminobenzoate, Sigma, MO) before decapitation in full accordance with all rules of the Austrian animal protection law (see http://www.ris.bka.gv.at/Dokumente/BgblAuth/BGBLA_2012_I_114/BGBLA_2012_I_114.pdf) and the Austrian animal experiment by-laws (see https://www.ris.bka.gv.at/Dokumente/BgblAuth/BGBLA_2012_II_522/BGBLA_2012_II_522.pdf) which implement the European Directive 2010/63/EU (see http://eur-lex.europa.eu/LexUriServ/LexUriServ.do?uri=OJ:L:2010:276:0033:0079:en:PDF) into the Austrian law (all information accessed on July 27, 2016). The frog’s ovaries were transferred to ND96 medium (96 mM NaCl, 2 mM KCl, 1 mM MgCl2, 5 mM HEPES; pH 7.5). Stage 5–6 oocytes with the follicle cell layer around them were roughly dissected with forceps into packages of 10–15 cells and washed in Ca^2+-free ND96 medium. Cells were then digested with collagenase (type IA, Sigma, NO, 1 mg/mL ND96) at 18 °C shaking at 30 rpm for 30–60 minutes and gently defolliculated with the aid of a glass pipette with appropriate tip diameter and a platinum loop. Defolliculated cells were stored at 18 °C for at least 6 hours in ND96 solution containing penicillin G (10000 IU/100 mL) and streptomycin (10 mg/100 mL) in order to preselect and exclude damaged cells from further treatment. Healthy defolliculated oocytes were injected with an aqueous solution of mRNA. A total of 4.5 ng of mRNA per oocyte was injected with a Nanoject II (Drummond). After injection of mRNA, oocytes were incubated at 18 °C (ND96 + antibiotic) for 2–3 days for αβ receptors and for 3–4 days for αβγ or αβδ receptors before recording. When cells were measured at later time points, oocytes were stored at +4 °C instead of 18 °C.
(§4) For electrophysiological recordings, oocytes were placed on a nylon-grid in a bath of Ca^2+-containing NDE solution medium [96 mM NaCl, 5 mM HEPES-NaOH (pH 7.5), 2 mM KCl, 1 mM MgCl2, 1.8 mM CaCl2].

α6β3γ2 GABAA receptors = target: T2, α6β3γ2 GABAA receptors (Rattus norvegicus, UniProt P30191+P63079); assay: Two electrode voltage clamp in Xenopus laevis oocytes, α6β3γ2
T2 construct: expressed in transfected cells; host or cells: Xenopus laevis oocytes, mRNA injected
Text: as §1, §2, §3, §4

α2β3 GABAA receptors = target: T3, α2β3 GABAA receptors (Rattus norvegicus, UniProt P23576+P63079); assay: Two electrode voltage clamp in Xenopus laevis oocytes, α2β3
T3 construct: expressed in transfected cells; host or cells: Xenopus laevis oocytes, mRNA injected
Text: as §1, §2, §3, §4

α5β3γ2 GABAA receptors = target: T4, α5β3γ2 GABAA receptors (Rattus norvegicus, UniProt P19969+P63079); assay: Two electrode voltage clamp in Xenopus laevis oocytes, α5β3γ2
T4 construct: expressed in transfected cells; host or cells: Xenopus laevis oocytes, mRNA injected
Text: as §1, §2, §3, §4

α2β3γ2 GABAA receptors = target: T5, α2β3γ2 GABAA receptors (Rattus norvegicus, UniProt P23576+P63079); assay: Two electrode voltage clamp in Xenopus laevis oocytes, α2β3γ2
T5 construct: expressed in transfected cells; host or cells: Xenopus laevis oocytes, mRNA injected
Text: as §1, §2, §3, §4

α3β3γ2 GABAA receptors = target: T6, α3β3γ2 GABAA receptors (Rattus norvegicus, UniProt P20236+P63079); assay: Two electrode voltage clamp in Xenopus laevis oocytes, α3β3γ2
T6 construct: expressed in transfected cells; host or cells: Xenopus laevis oocytes, mRNA injected
Text: as §1, §2, §3, §4

α3β3 GABAA receptors = target: T7, α3β3 GABAA receptors (Rattus norvegicus, UniProt P20236+P63079); assay: Two electrode voltage clamp in Xenopus laevis oocytes, α3β3
T7 construct: expressed in transfected cells; host or cells: Xenopus laevis oocytes, mRNA injected
Text: as §1, §2, §3, §4

[1] = read-out: efficacy, % of control current (GABA EC3-5 = 100%), 1 nM
[2] = read-out: efficacy, % of control current (GABA EC3-5 = 100%), 10 nM
[3] = read-out: efficacy, % of control current (GABA EC3-5 = 100%), 300 nM
[4] = read-out: efficacy, % of control current (GABA EC3-5 = 100%), 1 µM
[5] = read-out: efficacy, % of control current (GABA EC3-5 = 100%), 10 µM
[6] = read-out: efficacy, % of control current (GABA EC3-5 = 100%), 30 µM
[7] = read-out: efficacy, % of control current (GABA EC3-5 = 100%), 100 nM

T5 sequence (P23576 29-451): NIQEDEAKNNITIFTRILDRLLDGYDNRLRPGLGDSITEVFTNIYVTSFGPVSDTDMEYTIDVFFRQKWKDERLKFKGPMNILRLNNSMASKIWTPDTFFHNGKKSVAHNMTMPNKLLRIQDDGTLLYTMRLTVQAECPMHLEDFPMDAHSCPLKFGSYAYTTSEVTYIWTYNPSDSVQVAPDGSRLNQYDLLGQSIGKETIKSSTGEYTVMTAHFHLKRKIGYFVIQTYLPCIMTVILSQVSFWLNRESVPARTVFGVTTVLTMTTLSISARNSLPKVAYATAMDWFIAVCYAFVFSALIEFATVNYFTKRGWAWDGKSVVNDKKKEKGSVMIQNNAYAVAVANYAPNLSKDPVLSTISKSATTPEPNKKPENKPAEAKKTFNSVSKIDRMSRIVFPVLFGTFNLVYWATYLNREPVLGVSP
T5 sequence (P63079 26-473): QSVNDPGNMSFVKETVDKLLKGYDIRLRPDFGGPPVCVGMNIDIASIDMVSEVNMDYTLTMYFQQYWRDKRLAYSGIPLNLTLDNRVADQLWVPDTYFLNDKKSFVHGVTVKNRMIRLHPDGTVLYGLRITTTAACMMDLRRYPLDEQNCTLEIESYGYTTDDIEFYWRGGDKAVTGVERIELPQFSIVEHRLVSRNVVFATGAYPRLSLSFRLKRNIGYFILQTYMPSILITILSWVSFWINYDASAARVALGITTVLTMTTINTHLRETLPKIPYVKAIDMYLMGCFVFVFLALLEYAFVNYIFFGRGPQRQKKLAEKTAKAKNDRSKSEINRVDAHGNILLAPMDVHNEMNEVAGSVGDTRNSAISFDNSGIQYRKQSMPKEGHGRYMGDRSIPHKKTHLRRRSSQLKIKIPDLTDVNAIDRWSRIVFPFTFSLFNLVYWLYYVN
T5 sequence (P18508 39-466 partner): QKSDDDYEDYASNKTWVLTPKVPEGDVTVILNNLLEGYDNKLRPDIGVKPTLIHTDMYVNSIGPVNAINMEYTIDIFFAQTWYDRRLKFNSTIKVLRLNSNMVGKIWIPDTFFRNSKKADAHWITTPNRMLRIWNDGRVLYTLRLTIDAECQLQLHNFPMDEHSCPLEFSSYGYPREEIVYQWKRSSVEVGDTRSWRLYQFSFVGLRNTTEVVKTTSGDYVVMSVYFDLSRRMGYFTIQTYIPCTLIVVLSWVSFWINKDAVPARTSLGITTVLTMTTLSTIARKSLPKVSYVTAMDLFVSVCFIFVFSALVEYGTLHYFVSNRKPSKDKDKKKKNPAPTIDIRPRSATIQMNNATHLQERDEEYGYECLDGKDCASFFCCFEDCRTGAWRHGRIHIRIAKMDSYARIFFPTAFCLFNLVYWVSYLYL
T3 sequence (P23576 29-451): as the sequence (P23576 29-451) above
T3 sequence (P63079 26-473): as the sequence (P63079 26-473) above
T1 sequence (P62813 28-455): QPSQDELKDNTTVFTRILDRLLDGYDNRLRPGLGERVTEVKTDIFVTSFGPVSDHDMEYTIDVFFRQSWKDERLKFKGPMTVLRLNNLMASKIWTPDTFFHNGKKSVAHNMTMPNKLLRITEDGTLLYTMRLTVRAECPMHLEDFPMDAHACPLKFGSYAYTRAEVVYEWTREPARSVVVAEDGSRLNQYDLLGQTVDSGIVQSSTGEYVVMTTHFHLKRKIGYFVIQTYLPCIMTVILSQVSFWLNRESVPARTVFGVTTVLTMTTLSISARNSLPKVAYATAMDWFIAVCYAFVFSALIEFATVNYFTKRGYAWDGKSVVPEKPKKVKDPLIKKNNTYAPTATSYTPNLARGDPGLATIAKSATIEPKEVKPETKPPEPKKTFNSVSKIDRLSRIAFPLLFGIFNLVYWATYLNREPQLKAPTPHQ
T1 sequence (P63079 26-473): as the sequence (P63079 26-473) above
T1 sequence (P18508 39-466 partner): as the sequence (P18508 39-466 partner) above
T7 sequence (P20236 29-493): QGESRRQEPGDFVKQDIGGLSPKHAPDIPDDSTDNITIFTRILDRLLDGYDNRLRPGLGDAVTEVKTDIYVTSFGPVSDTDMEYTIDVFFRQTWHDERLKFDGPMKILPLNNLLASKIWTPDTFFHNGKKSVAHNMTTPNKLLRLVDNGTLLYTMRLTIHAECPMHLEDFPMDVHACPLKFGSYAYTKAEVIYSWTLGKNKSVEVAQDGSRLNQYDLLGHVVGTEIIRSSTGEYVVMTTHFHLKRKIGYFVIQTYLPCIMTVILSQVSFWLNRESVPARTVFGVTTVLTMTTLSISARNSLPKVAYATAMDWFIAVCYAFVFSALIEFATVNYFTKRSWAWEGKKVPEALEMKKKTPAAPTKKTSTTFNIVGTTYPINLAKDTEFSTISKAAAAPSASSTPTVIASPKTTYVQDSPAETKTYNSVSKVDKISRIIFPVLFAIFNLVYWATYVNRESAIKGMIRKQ
T7 sequence (P63079 26-473): as the sequence (P63079 26-473) above
T6 sequence (P20236 29-493): as the sequence (P20236 29-493) above
T6 sequence (P63079 26-473): as the sequence (P63079 26-473) above
T6 sequence (P18508 39-466 partner): as the sequence (P18508 39-466 partner) above
T4 sequence (P19969 32-464 limits assumed): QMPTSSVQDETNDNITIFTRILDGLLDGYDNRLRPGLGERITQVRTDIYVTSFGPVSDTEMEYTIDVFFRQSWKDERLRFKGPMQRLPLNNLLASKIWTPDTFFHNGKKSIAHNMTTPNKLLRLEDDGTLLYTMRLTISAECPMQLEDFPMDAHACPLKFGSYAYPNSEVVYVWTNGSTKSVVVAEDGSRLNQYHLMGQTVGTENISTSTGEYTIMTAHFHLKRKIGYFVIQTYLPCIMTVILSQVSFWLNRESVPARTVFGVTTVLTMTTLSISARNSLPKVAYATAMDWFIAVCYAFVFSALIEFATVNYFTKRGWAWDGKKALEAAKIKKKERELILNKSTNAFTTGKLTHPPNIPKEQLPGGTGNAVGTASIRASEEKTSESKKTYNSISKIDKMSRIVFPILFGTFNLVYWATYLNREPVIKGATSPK
T4 sequence (P63079 26-473): as the sequence (P63079 26-473) above
T4 sequence (P18508 39-466 partner): as the sequence (P18508 39-466 partner) above
T2 sequence (P30191 20-453): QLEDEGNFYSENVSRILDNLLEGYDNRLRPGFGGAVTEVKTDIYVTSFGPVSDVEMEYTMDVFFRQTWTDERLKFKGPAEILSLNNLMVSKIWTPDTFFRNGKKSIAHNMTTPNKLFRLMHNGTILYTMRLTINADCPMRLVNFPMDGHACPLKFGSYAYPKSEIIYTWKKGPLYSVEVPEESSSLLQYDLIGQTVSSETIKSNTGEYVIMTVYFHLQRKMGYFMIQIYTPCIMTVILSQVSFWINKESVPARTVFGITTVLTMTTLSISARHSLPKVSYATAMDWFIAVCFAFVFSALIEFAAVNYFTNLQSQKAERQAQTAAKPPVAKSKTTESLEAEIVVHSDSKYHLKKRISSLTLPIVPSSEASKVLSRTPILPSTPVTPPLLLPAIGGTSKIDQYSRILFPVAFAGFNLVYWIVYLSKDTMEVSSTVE
T2 sequence (P63079 26-473): as the sequence (P63079 26-473) above
T2 sequence (P18508 39-466 partner): as the sequence (P18508 39-466 partner) above

## Nc1ccc(-n2nc3c4cc(Cl)ccc4[nH]cc-3c2=O)cc1 [Compound 3, 8-Chloro-2-(4-aminophenyl)-2H-pyrazolo[4,3-c]quinolin-3(5H)-one]
α1β3γ2 GABAA receptors; co-applied with GABA EC3-5, read-out: EC50
  EC50: ~1000 nM
α1β3γ2 GABAA receptors; [1]
  activity at 0.001 µM: 100.8 ± 0.6%
α1β3γ2 GABAA receptors; [2]
  activity at 0.01 µM: 103 ± 1.4%
α1β3γ2 GABAA receptors; [3]
  activity at 0.3 µM: 120 ± 4.3%
α1β3γ2 GABAA receptors; [4]
  activity at 1 µM: 145 ± 3.7%
α1β3γ2 GABAA receptors; read-out: efficacy, % of control current (GABA EC3-5 = 100%), 3 µM
  activity at 3 µM: 197 ± 13.7%
α1β3γ2 GABAA receptors; [5]
  activity at 10 µM: 232 ± 7.5%
α1β3γ2 GABAA receptors; [6]
  activity at 30 µM: 137 ± 17.8%
α1β3γ2 GABAA receptors; read-out: maximum efficacy / modulatory effects up to
  Emax: ~200%
α1β3γ2 GABAA receptors; read-out: pEC50 (converted)
  EC50: 1260 nM
α6β3γ2 GABAA receptors; co-applied with GABA EC3-5
  EC50: ~2000 nM and 2300 nM
α6β3γ2 GABAA receptors; [1]
  activity at 0.001 µM: 108 ± 5.9%
α6β3γ2 GABAA receptors; [2]
  activity at 0.01 µM: 120 ± 7.1%
α6β3γ2 GABAA receptors; [7]
  activity at 0.1 µM: 148 ± 8%
α6β3γ2 GABAA receptors; [4]
  activity at 1 µM: 250 ± 18.9%
α6β3γ2 GABAA receptors; [5]
  activity at 10 µM: 394 ± 35%
α2β3 GABAA receptors; read-out: EC50
  EC50: 5100 nM
α2β3 GABAA receptors; read-out: efficacy, % of control current (GABA EC3-5 = 100%), α2β3, 1 nM
  activity at 0.001 µM: 100 ± 0.1%
α2β3 GABAA receptors; read-out: efficacy, % of control current (GABA EC3-5 = 100%), α2β3, 100 nM
  activity at 0.1 µM: 102 ± 1.2%
α2β3 GABAA receptors; read-out: efficacy, % of control current (GABA EC3-5 = 100%), α2β3, 10 µM
  activity at 10 µM: 156 ± 9.7%
α5β3γ2 GABAA receptors
  EC50: > 10000 nM
α5β3γ2 GABAA receptors; read-out: efficacy, % of control current (GABA EC3-5 = 100%), α5β3γ2, 10 nM
  activity at 0.01 µM: 89.6 ± 3.1%
α5β3γ2 GABAA receptors; read-out: efficacy, % of control current (GABA EC3-5 = 100%), α5β3γ2, 100 nM
  activity at 0.1 µM: 83.6 ± 4.2%
α5β3γ2 GABAA receptors; read-out: efficacy, % of control current (GABA EC3-5 = 100%), α5β3γ2, 1 µM
  activity at 1 µM: 90.6 ± 5.1%
α5β3γ2 GABAA receptors; read-out: efficacy, % of control current (GABA EC3-5 = 100%), α5β3γ2, 10 µM
  activity at 10 µM: 52.8 ± 6.7%
α2β3γ2 GABAA receptors
  EC50: > 10000 nM
α2β3γ2 GABAA receptors; read-out: efficacy, % of control current (GABA EC3-5 = 100%), α2β3γ2, 10 nM
  activity at 0.01 µM: 103 ± 3.2%
α2β3γ2 GABAA receptors; read-out: efficacy, % of control current (GABA EC3-5 = 100%), α2β3γ2, 100 nM
  activity at 0.1 µM: 103 ± 3.2%
α2β3γ2 GABAA receptors; read-out: efficacy, % of control current (GABA EC3-5 = 100%), α2β3γ2, 1 µM
  activity at 1 µM: 106 ± 2.2%
α2β3γ2 GABAA receptors; read-out: efficacy, % of control current (GABA EC3-5 = 100%), α2β3γ2, 10 µM
  activity at 10 µM: 124 ± 4.1%
α3β3γ2 GABAA receptors
  modulatory effects up to: ~ 200%
α3β3γ2 GABAA receptors; co-applied with GABA EC3-5
  EC50: ~1000 nM and 1200 nM
α3β3γ2 GABAA receptors; [1]
  activity at 0.001 µM: 100%
α3β3γ2 GABAA receptors; [2]
  activity at 0.01 µM: 101 ± 1%
α3β3γ2 GABAA receptors; [7]
  activity at 0.1 µM: 108 ± 3.7%
α3β3γ2 GABAA receptors; [3]
  activity at 0.3 µM: 104 ± 4%
α3β3γ2 GABAA receptors; [4]
  activity at 1 µM: 133 ± 4%
α3β3γ2 GABAA receptors; [5]
  activity at 10 µM: 202 ± 23%
α3β3γ2 GABAA receptors; [6]
  activity at 30 µM: 195%
α3β3 GABAA receptors
  EC50: 1900 nM
α3β3 GABAA receptors; read-out: efficacy, % of control current (GABA EC3-5 = 100%), α3β3, 1 nM
  activity at 0.001 µM: 103 ± 3.1%
α3β3 GABAA receptors; read-out: efficacy, % of control current (GABA EC3-5 = 100%), α3β3, 1 µM
  activity at 1 µM: 144 ± 6.3%
